Measurements reported in patent US7150974B1, “Parathyroid hormone receptor binding method” (The General Hospital Corporation, priority 1991, dated 2006).

Assays:
Format in all cases: cell-based
[1] = molecular target: T1, human kidney PTH/PTHrP receptor (Homo sapiens, UniProt Q03431, L389Q); test: cAMP accumulation, COS-7 cells expressing human kidney receptor; conditions: COS-7 cells expressing human receptor, FIG. 18
T1 construct: The full-length human kidney PTH/PTHrP receptor cDNA, HKrk, was constructed using the BamHI/PvuII fragment of PCR clone #2 and HK-2; expressed in transfected cells; host or cells: COS-7 cells, transient (DEAE/Dextran), pcDNAI
T1 sequence (Q03431 27-593 L389Q): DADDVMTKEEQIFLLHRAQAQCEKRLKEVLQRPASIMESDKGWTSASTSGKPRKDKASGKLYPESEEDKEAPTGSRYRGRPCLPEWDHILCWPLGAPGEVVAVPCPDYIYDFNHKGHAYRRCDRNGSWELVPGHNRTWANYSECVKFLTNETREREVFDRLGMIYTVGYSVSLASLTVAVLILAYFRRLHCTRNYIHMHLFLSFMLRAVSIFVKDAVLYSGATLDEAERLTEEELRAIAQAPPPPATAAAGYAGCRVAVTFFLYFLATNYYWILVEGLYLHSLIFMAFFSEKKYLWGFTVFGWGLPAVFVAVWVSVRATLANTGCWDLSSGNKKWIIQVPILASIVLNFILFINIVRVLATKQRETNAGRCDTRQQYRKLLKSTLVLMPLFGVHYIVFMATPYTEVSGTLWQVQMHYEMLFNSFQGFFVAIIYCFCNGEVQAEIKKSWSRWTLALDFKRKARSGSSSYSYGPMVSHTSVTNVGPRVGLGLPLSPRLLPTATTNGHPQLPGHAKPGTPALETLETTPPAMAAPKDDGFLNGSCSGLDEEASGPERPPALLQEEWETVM
Description: (§1) Intracellular cAMP accumulation was measured as described previously (Abou-Samra et al., J. Biol. Chem. 262:1129, 1986). Cells in 24-well plates were rinsed with culture medium containing 0.1% BSA and 2 mM IBMX. […] The supernatant was removed and the cells immediately frozen by placing the whole plate in dry ice powder. Intracellular cAMP was extracted by thawing the cells in 1 ml of 50 mM HCl and analyzed by a specific radioimmunoassay using an anti-cAMP antibody (e.g., Sigma, St. Louis, Mo.). A cAMP analog (2′-O-monosuccinyl-adenosine 3′:5′-cyclic monophosphate tyrosyl methyl ester, obtained from Sigma) which was used a tracer for cAMP was iodinated by the chloramine T method. Free iodine was removed by adsorbing the iodinated cAMP analog onto a C18 Sep-pak cartridge (Waters, Milford, Mass.). After washing with dH2O, the iodinated cAMP analog was eluted from the Sep-pak Cartridge with 40% acetonitrille (ACN) and 0.1% trifluoroacetic acid (TFA). The iodinated cAMP analog was lyophilized, reconstituted in 1 ml 0.1% TFA, and injected into a C18 reverse phase HPLC column (Waters). The column was equilibrated with 10% ACN in 0.1% TFA, and eluted with gradient of 10-30% ACN in 0.1% TFA. This allows separation of the mono-iodinated cAMP analog from the non-iodinated cAMP analog. […] The standard used for the assay, adenosine 3′:5′-cyclic monophosphate, was purchased from Sigma. […]

[2] = molecular target: T2, opossum kidney PTH/PTHrp receptor clone, OK-O (Didelphis virginiana, UniProt P25107, I132F/S86P); test: Intracellular free calcium, COS cells expressing OK-O; conditions: FIG. 12
T2 construct: expressed in transfected cells; host or cells: COS cells, transient, plasmid OK-O (pcDNA I)
T2 sequence (P25107 27-585 S86P/I132F): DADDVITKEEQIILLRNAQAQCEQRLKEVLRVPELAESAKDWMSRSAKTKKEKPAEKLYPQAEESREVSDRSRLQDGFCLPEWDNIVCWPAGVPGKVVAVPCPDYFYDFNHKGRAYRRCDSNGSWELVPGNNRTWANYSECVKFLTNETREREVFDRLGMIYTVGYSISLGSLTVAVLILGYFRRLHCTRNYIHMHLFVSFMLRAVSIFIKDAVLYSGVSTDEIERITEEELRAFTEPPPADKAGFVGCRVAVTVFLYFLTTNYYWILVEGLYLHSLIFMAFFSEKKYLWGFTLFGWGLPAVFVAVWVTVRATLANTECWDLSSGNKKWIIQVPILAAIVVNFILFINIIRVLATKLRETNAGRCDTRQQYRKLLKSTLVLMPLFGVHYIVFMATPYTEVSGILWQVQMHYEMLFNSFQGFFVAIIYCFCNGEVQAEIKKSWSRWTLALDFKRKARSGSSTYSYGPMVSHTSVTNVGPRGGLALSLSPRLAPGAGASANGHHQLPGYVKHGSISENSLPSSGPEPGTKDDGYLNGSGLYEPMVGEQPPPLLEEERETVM
Description: Details of the methodology are:
Coverslips plated with COS cells were incubated in Fura-2 AM loading buffer containing, in mM: HEPES (N-[2-Hydroxyethyl]piperazine-N′-[2-ethanesulfonic acid]), 20; CaCl2, 1; KCl 5; NaCl, 145; MgSO4, 0.5; NaHCO3, 25; K2HPO4, 1.4; glucose, 10; and Fura-2 AM 91-(2-5′-carboxyoxazol-2′-yl)-6-aminobenzofuran-5oxy-(2′-amino-5′-methylphenoxy)ethane-N,N,N′,N′-tetraaecetic acid acetomethoxy ester), 0.5; at 37° C. at pH7.4, aerated with 95% air and 5% CO2 for 45 minutes. Cells loaded with Fura-2 AM were then washed with a modified Krebs-Heinseleit (KH) buffer containing, in mM: HEPES, 20; CaCl2, 1; KCl, 5; NaCl, 145; MgSO4, 0.5; Na2HPO4, 1; glucose, 5; pH7.4. To check that cleavage of the ester occurred, the excitation spectra after different times of Fura-2 AM incubation were measured.
To measure fluorescence of individual cells, the cover slips were placed in a microscope tissue chamber (Biophysica Technologies, Inc., MD). The chamber consisted of a shallow, sloped compartment made of Teflon with a silicone rubber seal. The cover slips served as the bottom of the chamber. A heater/cooler ring was encased in the silicone rubber which sealed the coverslip in place.

[3] = molecular target: T3, rat bone PTH/PTHrP receptor (Rattus norvegicus, UniProt P25961, E586G); test: cAMP accumulation, COS cells expressing R15B
T3 construct: expressed in transfected cells; host or cells: COS / COS-7 cells, transient, plasmid R15B (pcDNA I)
T3 sequence (P25961 27-591 E586G): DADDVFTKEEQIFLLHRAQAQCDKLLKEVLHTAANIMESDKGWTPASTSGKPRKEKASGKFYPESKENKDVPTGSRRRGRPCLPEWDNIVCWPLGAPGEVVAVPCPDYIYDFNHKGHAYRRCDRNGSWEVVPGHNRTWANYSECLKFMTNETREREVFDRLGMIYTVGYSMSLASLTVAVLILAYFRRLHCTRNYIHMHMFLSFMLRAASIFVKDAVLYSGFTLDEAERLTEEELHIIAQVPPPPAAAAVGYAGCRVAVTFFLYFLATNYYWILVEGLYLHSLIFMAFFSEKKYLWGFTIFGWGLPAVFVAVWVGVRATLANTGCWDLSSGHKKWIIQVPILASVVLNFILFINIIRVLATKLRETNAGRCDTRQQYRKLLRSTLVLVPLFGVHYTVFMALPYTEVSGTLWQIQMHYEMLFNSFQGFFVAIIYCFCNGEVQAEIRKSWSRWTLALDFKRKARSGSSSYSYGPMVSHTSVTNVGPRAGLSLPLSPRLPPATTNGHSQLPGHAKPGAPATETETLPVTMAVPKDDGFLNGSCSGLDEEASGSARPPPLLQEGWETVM
Description: as §1

[Nle^8,18, Tyr^34]bPTH(1-34)amide
cAMP accumulation, PTH(1-34) compared with PTHrP(1-36) [1]: to the same extent | increase in intracellular free calcium [2]: increase | cAMP accumulation ([3]; COS cells expressing R15B, FIG. 16): increase cAMP accumulation | cAMP accumulation, PTH(1-34) compared with PTHrP(1-36) ([3]; COS-7 cells expressing rat receptor): to the same extent
